Reference: PMC10518257 (Nature Cancer, 2023)

Assays:
Experiment in all cases: Kinase selectivity profiling at a single concentration (Carna Biosciences)
Type in all cases: biochemical
[1] = molecular target: T1, panel of 255 (vepafestinib) or 256 (all other inhibitors) recombinant kinases (Homo sapiens, UniProt Q16288); details: 17 nM
T1 construct: purchased Carna Biosciences

[2] = molecular target: T2, panel of 255 (vepafestinib) or 256 (all other inhibitors) recombinant kinases (Homo sapiens, UniProt Q16832); details: 17 nM
T2 construct: purchased Carna Biosciences
T2 sequence (Q16832 22-855): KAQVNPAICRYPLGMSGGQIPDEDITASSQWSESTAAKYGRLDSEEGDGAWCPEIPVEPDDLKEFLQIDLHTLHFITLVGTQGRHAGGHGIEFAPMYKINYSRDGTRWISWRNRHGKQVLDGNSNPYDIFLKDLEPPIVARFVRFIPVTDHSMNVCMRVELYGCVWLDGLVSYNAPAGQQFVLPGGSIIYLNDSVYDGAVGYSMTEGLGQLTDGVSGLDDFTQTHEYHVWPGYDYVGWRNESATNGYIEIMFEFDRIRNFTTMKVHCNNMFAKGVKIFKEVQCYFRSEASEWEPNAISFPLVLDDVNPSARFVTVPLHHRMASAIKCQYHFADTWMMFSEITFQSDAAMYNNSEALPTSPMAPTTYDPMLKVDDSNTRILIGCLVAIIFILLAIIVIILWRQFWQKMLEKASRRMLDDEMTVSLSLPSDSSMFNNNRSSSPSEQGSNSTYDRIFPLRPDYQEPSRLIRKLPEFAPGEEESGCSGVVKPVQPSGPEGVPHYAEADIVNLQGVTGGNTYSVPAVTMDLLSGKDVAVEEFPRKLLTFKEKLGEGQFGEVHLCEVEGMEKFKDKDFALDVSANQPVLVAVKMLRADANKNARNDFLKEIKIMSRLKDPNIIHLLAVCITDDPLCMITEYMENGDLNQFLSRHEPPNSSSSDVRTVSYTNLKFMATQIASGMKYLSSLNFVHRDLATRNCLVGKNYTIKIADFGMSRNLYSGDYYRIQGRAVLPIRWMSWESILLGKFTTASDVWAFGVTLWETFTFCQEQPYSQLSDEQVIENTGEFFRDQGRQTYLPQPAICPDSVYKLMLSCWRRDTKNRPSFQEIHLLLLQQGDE

[3] = molecular target: T3, panel of 255 (vepafestinib) or 256 (all other inhibitors) recombinant kinases (Homo sapiens, UniProt P17948); details: 22 nM
T3 construct: purchased Carna Biosciences
T3 sequence (P17948 27-1338): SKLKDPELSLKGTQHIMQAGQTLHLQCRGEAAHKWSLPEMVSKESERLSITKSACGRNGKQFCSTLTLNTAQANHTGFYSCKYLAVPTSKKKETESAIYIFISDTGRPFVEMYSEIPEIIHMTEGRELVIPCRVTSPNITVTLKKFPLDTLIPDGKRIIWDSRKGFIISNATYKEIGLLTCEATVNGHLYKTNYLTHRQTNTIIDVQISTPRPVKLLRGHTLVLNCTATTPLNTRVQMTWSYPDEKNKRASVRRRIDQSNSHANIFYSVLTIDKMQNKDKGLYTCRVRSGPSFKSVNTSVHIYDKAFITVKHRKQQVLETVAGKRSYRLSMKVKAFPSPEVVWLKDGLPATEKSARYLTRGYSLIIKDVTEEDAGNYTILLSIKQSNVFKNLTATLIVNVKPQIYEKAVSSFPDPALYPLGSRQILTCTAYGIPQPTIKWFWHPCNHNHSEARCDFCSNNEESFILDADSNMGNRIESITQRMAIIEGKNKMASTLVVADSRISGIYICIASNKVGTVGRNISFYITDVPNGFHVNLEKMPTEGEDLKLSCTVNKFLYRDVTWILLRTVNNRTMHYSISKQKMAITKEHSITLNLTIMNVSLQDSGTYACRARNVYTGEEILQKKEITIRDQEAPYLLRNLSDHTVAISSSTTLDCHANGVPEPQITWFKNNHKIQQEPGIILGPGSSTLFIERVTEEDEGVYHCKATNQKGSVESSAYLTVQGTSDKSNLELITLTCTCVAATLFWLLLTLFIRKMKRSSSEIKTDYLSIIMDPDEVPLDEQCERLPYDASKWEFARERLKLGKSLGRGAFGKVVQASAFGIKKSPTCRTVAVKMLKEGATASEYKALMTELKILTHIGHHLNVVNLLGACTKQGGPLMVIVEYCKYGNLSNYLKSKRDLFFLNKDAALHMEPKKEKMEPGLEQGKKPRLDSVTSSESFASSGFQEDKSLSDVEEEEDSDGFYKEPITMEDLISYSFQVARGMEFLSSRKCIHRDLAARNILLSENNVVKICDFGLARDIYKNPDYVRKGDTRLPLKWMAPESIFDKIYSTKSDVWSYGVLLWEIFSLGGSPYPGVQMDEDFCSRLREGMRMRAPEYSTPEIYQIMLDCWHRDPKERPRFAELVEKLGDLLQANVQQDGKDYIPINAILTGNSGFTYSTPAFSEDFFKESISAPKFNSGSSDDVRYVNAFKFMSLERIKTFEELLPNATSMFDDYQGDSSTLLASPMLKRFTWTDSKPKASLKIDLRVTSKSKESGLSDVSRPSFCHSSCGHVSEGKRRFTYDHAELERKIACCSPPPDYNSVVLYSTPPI

[4] = molecular target: T4, panel of 255 (vepafestinib) or 256 (all other inhibitors) recombinant kinases (Homo sapiens, UniProt P24941); details: 22 nM
T4 construct: purchased Carna Biosciences

[5] = molecular target: T5, panel of 255 (vepafestinib) or 256 (all other inhibitors) recombinant kinases (Homo sapiens, UniProt Q92630); details: 22 nM
T5 construct: purchased Carna Biosciences
T5 sequence (Q92630 whole entry): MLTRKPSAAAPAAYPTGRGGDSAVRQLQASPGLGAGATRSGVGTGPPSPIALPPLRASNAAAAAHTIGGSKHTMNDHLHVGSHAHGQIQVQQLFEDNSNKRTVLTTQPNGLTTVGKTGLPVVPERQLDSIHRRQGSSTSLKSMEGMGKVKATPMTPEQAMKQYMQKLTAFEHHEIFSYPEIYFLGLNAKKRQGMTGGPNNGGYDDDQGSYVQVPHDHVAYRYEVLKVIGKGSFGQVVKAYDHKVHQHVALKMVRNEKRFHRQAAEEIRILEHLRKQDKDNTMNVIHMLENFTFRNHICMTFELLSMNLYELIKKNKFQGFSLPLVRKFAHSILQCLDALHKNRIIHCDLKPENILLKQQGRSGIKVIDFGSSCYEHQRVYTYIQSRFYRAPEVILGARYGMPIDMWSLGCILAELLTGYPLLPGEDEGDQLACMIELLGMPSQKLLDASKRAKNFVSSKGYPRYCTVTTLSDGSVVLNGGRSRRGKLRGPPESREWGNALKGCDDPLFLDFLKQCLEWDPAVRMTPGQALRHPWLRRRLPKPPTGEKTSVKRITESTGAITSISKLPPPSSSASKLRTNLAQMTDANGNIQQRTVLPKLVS

T1 sequence (Q16288 32-839): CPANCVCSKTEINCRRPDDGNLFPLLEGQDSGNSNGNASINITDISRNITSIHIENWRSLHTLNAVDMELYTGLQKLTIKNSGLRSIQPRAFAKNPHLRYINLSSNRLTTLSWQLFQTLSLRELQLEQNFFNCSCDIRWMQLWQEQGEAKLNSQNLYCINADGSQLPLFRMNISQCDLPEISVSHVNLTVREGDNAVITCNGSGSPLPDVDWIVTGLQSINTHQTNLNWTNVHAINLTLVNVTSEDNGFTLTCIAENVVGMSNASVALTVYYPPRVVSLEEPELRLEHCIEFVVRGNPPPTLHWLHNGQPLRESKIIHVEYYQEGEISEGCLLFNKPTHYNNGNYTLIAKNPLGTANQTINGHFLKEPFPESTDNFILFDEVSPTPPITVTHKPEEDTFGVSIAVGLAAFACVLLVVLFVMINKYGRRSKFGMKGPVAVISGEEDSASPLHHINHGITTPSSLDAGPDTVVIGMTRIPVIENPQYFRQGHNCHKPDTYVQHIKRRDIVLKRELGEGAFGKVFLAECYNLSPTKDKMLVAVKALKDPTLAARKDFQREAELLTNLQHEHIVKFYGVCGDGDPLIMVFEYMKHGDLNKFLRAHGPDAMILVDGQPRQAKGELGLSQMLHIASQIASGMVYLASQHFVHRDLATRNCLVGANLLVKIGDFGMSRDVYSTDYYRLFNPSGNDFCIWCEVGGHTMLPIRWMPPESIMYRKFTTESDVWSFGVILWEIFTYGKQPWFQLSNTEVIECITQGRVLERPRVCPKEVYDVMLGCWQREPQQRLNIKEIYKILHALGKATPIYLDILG

| Structure (SMILES) | % Inhibiton TRKC [1] | % Inhibiton DDR2 [2] | % Inhibiton FLT1 [3] | % Inhibiton CDK2/CycA2 [4] | % Inhibiton DYRK2 [5] |
| --- | --- | --- | --- | --- | --- |
| CO[C@]1(C(=O)N[C@@H](C)c2ccc(-n3cc(F)cn3)nc2)CC[C@H](c2nc(C)cc(Nc3cc(C)[nH]n3)n2)CC1 [Pralsetinib] | 57.7% | 72.5% |  |  |  |
| COc1ccc(CN2C3CC2CN(c2ccc(-c4cc(OCC(C)(C)O)cn5ncc(C#N)c45)cn2)C3)cn1 [Selpercatinib] |  |  | 45.4% | 17.9% | 17.3% |
